SMILES strings stand for the structures. pIC50, pKi: −log10 of the molar value.

The pIC50 is −log10 of the IC50, conventionally taken in molar units. For orientation: pKi means the negative decadic logarithm of the Ki, by convention in mol/L. A low value points to a high Ki.

The target in assay [1] is 5-hydroxytryptamine receptor 4 (Cavia porcellus, UniProt O70528). Format: cell membranes, Dunkin-Hartley, Striatum, Membrane. Further: in other assays of this panel Not Active means under 50% inhibition at 10 µM.
5-hydroxytryptamine receptor 4, sequence (O70528 whole entry): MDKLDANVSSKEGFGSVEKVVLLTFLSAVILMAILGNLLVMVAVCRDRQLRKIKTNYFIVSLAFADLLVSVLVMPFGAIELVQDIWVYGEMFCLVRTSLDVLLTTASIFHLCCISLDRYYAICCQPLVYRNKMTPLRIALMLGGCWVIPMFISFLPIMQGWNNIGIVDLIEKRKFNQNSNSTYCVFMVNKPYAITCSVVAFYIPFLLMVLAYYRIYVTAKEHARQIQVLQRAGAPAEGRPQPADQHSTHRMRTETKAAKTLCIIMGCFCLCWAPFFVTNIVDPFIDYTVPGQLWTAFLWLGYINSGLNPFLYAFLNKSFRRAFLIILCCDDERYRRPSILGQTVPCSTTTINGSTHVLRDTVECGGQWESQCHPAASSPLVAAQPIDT
In assay [2] the target is Substance-P receptor (Homo sapiens, UniProt P25103). Format: cell membranes, Membrane. Conditions: cho. Further: in other assays of this panel Not Active means under 50% inhibition at 10 µM.
Substance-P receptor, sequence (P25103 whole entry): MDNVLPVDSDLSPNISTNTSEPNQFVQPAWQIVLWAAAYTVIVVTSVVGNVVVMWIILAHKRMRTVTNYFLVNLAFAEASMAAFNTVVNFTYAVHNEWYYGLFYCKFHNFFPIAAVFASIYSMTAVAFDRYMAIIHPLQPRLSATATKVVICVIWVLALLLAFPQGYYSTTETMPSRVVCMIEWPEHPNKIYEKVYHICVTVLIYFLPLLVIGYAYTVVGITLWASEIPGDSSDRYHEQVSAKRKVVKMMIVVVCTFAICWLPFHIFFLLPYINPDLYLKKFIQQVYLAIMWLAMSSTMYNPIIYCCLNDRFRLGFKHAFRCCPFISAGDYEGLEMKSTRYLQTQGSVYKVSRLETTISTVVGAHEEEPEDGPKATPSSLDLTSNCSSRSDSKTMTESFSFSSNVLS
The target in assay [3] is T1, C-X-C chemokine receptor type 1 (Homo sapiens, UniProt P25024). Further: in other assays of this panel Not Active means under 50% inhibition at 10 µM.
T1 sequence (P25024 whole entry): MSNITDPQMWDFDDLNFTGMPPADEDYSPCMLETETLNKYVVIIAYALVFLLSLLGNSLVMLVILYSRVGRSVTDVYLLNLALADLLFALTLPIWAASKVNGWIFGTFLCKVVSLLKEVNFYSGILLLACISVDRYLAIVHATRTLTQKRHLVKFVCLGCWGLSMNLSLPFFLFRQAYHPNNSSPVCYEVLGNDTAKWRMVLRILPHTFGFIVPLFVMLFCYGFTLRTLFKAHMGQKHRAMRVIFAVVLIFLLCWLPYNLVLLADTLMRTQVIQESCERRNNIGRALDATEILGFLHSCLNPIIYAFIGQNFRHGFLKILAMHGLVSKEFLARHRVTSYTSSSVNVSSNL

The target of assay [4] is T2, Neuropeptide Y receptor type 2 (Homo sapiens, UniProt P49146). Further: in other assays of this panel Not Active means under 50% inhibition at 10 µM.
T2 sequence (P49146 whole entry): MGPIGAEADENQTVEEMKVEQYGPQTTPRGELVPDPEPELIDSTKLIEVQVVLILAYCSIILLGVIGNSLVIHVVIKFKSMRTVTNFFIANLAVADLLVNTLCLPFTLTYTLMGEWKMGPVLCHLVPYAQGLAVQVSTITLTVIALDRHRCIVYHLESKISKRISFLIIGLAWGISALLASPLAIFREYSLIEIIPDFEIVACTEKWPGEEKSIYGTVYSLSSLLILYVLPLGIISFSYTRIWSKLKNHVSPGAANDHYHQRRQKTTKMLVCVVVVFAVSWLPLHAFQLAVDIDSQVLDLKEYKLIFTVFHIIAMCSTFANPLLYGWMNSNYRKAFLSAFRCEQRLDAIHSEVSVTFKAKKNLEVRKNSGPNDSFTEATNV
Format: cell membranes, Membrane. Conditions: kan-ts.

The target in assay [5] is Mu-type opioid receptor (Homo sapiens, UniProt P35372). As to the kind of experiment: DRUGMATRIX: Opiate mu (OP3, MOP) radioligand binding (ligand: [3H] Diprenorphine). Format: cell membranes, CHO-K1, Membrane. Conditions: Not Active = under 50% inhibition at 10 µM; for IC50: cho-k1; for pIC50: read-out: IC50.
Mu-type opioid receptor, sequence (P35372 whole entry): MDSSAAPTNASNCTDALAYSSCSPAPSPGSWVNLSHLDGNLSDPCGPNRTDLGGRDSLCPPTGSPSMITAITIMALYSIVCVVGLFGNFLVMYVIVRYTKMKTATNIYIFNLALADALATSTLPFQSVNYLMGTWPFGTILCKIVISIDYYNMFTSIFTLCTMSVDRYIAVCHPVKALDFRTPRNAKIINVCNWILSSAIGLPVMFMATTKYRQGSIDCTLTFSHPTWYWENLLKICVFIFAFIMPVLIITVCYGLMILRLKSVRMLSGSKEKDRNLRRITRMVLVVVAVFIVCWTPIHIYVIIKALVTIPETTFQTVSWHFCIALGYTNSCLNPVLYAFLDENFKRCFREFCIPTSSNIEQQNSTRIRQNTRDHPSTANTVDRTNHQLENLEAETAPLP
Assay [6] has as its target Receptor tyrosine-protein kinase erbB-2 (Homo sapiens, UniProt P04626). Put plainly: biochemical. Format: cell-based, Insect cells. The settings on record: for IC50: insect cells.
For assay [7], the target named is Acetylcholinesterase (Homo sapiens, UniProt P22303). Put plainly: DRUGMATRIX: Acetylcholinesterase enzyme inhibition (substrate: acetylthiocholine). Format: cell-based, HEK293. Conditions: hek293; Not Active = under 50% inhibition at 10 µM.
Acetylcholinesterase, sequence (P22303 whole entry): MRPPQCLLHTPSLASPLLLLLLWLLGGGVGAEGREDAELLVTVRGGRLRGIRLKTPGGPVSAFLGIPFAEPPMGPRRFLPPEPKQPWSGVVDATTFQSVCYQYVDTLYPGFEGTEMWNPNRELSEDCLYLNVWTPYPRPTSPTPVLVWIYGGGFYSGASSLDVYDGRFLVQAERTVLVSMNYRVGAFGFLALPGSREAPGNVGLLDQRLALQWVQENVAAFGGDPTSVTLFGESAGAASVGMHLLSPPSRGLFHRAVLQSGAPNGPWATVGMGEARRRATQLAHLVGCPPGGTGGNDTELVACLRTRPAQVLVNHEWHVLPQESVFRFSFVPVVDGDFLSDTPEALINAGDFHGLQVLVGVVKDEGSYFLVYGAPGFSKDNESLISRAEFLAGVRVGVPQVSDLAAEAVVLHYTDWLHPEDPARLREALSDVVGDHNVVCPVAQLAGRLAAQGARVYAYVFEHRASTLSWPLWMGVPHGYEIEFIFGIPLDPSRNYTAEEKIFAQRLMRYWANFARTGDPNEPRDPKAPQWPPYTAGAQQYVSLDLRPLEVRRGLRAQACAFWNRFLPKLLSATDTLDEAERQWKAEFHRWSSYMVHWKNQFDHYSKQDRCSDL

Receptor tyrosine-protein kinase erbB-2, sequence (P04626 whole entry): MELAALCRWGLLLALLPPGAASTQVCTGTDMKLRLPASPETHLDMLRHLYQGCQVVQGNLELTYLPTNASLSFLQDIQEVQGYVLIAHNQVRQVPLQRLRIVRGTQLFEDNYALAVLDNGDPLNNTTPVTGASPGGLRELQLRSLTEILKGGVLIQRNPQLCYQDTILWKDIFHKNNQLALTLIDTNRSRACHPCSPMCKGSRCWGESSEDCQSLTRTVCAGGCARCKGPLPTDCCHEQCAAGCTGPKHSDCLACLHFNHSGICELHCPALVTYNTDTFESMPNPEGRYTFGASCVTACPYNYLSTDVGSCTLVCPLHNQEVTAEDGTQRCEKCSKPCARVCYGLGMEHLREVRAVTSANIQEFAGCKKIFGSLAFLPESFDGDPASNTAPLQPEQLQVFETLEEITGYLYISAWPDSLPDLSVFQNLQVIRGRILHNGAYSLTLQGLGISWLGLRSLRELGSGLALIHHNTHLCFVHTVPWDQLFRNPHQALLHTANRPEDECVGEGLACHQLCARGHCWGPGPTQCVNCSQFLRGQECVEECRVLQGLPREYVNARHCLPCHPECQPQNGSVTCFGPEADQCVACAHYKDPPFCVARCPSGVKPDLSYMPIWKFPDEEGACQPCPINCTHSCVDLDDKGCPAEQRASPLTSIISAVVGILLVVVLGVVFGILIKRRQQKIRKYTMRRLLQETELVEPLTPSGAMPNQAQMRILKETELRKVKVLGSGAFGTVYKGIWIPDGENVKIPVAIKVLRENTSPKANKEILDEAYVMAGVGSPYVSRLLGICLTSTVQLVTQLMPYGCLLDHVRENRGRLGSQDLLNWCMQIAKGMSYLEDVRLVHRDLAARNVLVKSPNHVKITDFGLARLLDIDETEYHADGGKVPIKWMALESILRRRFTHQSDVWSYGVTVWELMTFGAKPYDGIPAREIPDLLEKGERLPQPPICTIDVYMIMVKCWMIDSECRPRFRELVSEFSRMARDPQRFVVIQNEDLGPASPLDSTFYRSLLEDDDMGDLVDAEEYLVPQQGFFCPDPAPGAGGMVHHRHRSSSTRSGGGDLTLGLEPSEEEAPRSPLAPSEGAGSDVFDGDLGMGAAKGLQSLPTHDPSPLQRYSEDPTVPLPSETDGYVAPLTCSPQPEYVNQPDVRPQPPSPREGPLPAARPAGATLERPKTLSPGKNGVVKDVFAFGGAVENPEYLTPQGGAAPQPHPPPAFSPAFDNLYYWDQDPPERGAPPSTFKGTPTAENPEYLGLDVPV

`CC(C)(C)c1ccc(S(=O)(=O)/C=C/C#N)cc1` [BAY-11-7085]: the IC50 entry in assay [1], in assay [2], in assay [3], in assay [4], in assay [5] and in assay [6] was “Not Active” each time. In addition, in assay [7], the IC50 result is “Not Active”.
Turning to `CCc1oc2ccccc2c1C(=O)c1cc(Br)c(O)c(Br)c1` [BENZBROMARONE], the IC50 result in assay [1], in assay [2], in assay [3], in assay [4], in assay [5] and in assay [6] was “Not Active” each time. Moreover, the IC50 entry in assay [7] is recorded as “Not Active”.
As for `O=c1cc(-c2ccccc2)oc2ccc3ccccc3c12` [BETA-NAPHTHOFLAVONE], the IC50 result in assay [1], in assay [2], in assay [3], in assay [4], in assay [5] and in assay [6] was “Not Active” throughout. For the same compound, in assay [7], the IC50 result was “Not Active”.
With `CS(=O)(=O)OCCCCOS(C)(=O)=O` [BUSULFAN], the IC50 result in assay [1], in assay [2], in assay [3], in assay [4], in assay [5] and in assay [6] was “Not Active” throughout. The IC50 result in assay [7] is reported as “Not Active”.
As for `O=C(/C=C/c1ccc(O)c(O)c1)OCCc1ccccc1` [CAFFEIC ACID PHENETHYL ESTER], the IC50 result in assay [1], in assay [2], in assay [3], in assay [4], in assay [5] and in assay [7] was “Not Active” throughout. Also, the pIC50 in assay [6] (read-out: IC50) is 5.88.
As to `COc1cc(CNC(=O)CCCC/C=C/C(C)C)ccc1O` [CAPSAICIN], the IC50 result in assay [1], in assay [2], in assay [3], in assay [4], in assay [5] and in assay [6] was “Not Active” each time. For the same compound, in assay [7], the IC50 result is recorded as “Not Active”.
Turning to `NC(=O)N1c2ccccc2C=Cc2ccccc21` [CARBAMAZEPINE], the IC50 result in assay [1], in assay [2], in assay [3], in assay [4], in assay [5] and in assay [6] was “Not Active” each time. Also, the IC50 result in assay [7] is listed as “Not Active”.
As for `CCOC(=O)n1ccn(C)c1=S` [CARBIMAZOLE], the IC50 result in assay [1], in assay [2], in assay [3], in assay [4], in assay [5] and in assay [6] was “Not Active” throughout. The IC50 result in assay [7] is reported as “Not Active”.
For `Oc1ccccc1O` [CATECHOL], the IC50 entry in assay [1], in assay [2], in assay [3], in assay [4], in assay [5] and in assay [6] was “Not Active” each time. For the same compound, the IC50 entry in assay [7] was “Not Active”.
In the case of `CO[C@@]1(NC(=O)CSCC#N)C(=O)N2C(C(=O)O)=C(CSc3nnnn3C)CS[C@@H]21` [CEFMETAZOLE], the IC50 entry in assay [1], in assay [2], in assay [3], in assay [4], in assay [5] and in assay [6] was “Not Active” each time. Also, in assay [7], the IC50 entry is listed as “Not Active”.
As for `CN(C(=O)CCCOc1ccc2[nH]c(=O)ccc2c1)C1CCCCC1` [CILOSTAMIDE], the IC50 entry in assay [1], in assay [2], in assay [3], in assay [4], in assay [5] and in assay [6] was “Not Active” each time. Further, the IC50 entry in assay [7] is “Not Active”.
Take `CC(C)(Oc1ccc(C2CC2(Cl)Cl)cc1)C(=O)O` (stereo unspecified) [CIPROFIBRATE]: the Ki result in assay [1] was “Not Active”. The IC50 entry in assay [2], in assay [3], in assay [4], in assay [5], in assay [6] and in assay [7] was “Not Active” in each case.
With `Nc1nc(Cl)nc2c1ncn2[C@H]1C[C@H](O)[C@@H](CO)O1` [CLADRIBINE], the IC50 entry in assay [1], in assay [2], in assay [3], in assay [4], in assay [5] and in assay [6] was “Not Active” each time. In addition, in assay [7], the IC50 result is on record as “Not Active”.
As to `CC[C@H]1OC(=O)[C@H](C)[C@@H](O[C@H]2C[C@@](C)(OC)[C@@H](O)[C@H](C)O2)[C@H](C)[C@@H](O[C@@H]2O[C@H](C)C[C@H](N(C)C)[C@H]2O)[C@](C)(OC)C[C@@H](C)C(=O)[C@H](C)[C@@H](O)[C@]1(C)O` [CLARITHROMYCIN], the IC50 entry in assay [1], in assay [2], in assay [3], in assay [4], in assay [5] and in assay [6] was “Not Active” each time. Besides, the IC50 entry in assay [7] is given as “Not Active”.
On to `CCC[C@@H]1C[C@@H](C(=O)N[C@@H]([C@H]2O[C@H](SC)[C@H](O)[C@@H](O)[C@H]2O)[C@H](C)Cl)N(C)C1` [CLINDAMYCIN], for which the IC50 result in assay [1], in assay [2], in assay [3], in assay [4], in assay [5] and in assay [6] was “Not Active” each time. The IC50 entry in assay [7] is reported as “Not Active”.
For `O=C(O)c1cc(=O)c2c(OCC(O)COc3cccc4oc(C(=O)O)cc(=O)c34)cccc2o1` [CROMOLYN], the IC50 entry in assay [1], in assay [2], in assay [3], in assay [4], in assay [5] and in assay [6] was “Not Active” in each case. The IC50 entry in assay [7] is on record as “Not Active”.
For the compound `O=P1(N(CCCl)CCCl)NCCCO1` (stereo unspecified) [CYCLOPHOSPHAMIDE ANHYDROUS], the IC50 result in assay [1], in assay [2], in assay [3], in assay [4], in assay [5] and in assay [6] was “Not Active” each time. In addition, the IC50 result in assay [7] is given as “Not Active”.
In the case of `CC(=O)O[C@]1(C(C)=O)CC[C@H]2[C@@H]3C=C(Cl)C4=CC(=O)[C@@H]5C[C@@H]5[C@]4(C)[C@H]3CC[C@@]21C` [CYPROTERONE ACETATE], the IC50 result in assay [1], in assay [2], in assay [3], in assay [4], in assay [6] and in assay [7] was “Not Active” throughout. Besides, the pKi in assay [5] is 6.05. Also, in assay [5], the pIC50 was 5.66.
Regarding `C#C[C@]1(O)CC[C@H]2[C@@H]3CCC4=Cc5oncc5C[C@]4(C)[C@H]3CC[C@@]21C` [DANAZOL], the IC50 entry in assay [1], in assay [2], in assay [3], in assay [4], in assay [6] and in assay [7] was “Not Active” throughout. The same compound showed a negative logarithm of the Ki (pKi) in assay [5] of 5.24. Besides, the pIC50 in assay [5] was 4.85.
As for `CCN[C@@H](C)Cc1cccc(C(F)(F)F)c1` [DEXFENFLURAMINE], the IC50 entry in assay [1], in assay [2], in assay [3], in assay [4], in assay [5] and in assay [6] was “Not Active” in each case. Moreover, the IC50 entry in assay [7] is on record as “Not Active”.
With `C[C@H](C(=O)O)c1cccc(C(=O)c2ccccc2)c1` [DEXKETOPROFEN], the IC50 result in assay [1], in assay [2], in assay [3], in assay [4], in assay [5] and in assay [6] was “Not Active” throughout. In assay [7], the IC50 result is given as “Not Active”.
Consider `CN1C(=O)CN=C(c2ccccc2)c2cc(Cl)ccc21` [DIAZEPAM], for which the IC50 entry in assay [1], in assay [2], in assay [3], in assay [4], in assay [5] and in assay [6] was “Not Active” throughout. The IC50 result in assay [7] is recorded as “Not Active”.

The values are drawn from ChEMBL document CHEMBL1909046, “DrugMatrix in vitro pharmacology data”.
